Data on five compounds can be found in patent US8916550B2, “Compounds for modulating TRPV3 function” (Hydra Biosciences, Inc., priority 2005, dated 2014).

Where two headings read alike, the source gives them in different places.

The target in data set [1] is T1, NaV1.2 (Homo sapiens, UniProt Q99250).
T1 construct: expressed in transfected cells
Kind of data set: Selectivity patch clamp, NaV1.2 channel. Format: cell-based. The settings on record: fold selective for TRPV3 over NaV1.2; tested up to 30 μM, IC50 estimated. The source says: (§1) Data is presented as fold selective.

In data set [2] the target is T2, TRPV1 (hTRPV1) (Homo sapiens, UniProt Q8NER1).
T2 construct: expressed in transfected cells
T2 sequence (Q8NER1 whole entry): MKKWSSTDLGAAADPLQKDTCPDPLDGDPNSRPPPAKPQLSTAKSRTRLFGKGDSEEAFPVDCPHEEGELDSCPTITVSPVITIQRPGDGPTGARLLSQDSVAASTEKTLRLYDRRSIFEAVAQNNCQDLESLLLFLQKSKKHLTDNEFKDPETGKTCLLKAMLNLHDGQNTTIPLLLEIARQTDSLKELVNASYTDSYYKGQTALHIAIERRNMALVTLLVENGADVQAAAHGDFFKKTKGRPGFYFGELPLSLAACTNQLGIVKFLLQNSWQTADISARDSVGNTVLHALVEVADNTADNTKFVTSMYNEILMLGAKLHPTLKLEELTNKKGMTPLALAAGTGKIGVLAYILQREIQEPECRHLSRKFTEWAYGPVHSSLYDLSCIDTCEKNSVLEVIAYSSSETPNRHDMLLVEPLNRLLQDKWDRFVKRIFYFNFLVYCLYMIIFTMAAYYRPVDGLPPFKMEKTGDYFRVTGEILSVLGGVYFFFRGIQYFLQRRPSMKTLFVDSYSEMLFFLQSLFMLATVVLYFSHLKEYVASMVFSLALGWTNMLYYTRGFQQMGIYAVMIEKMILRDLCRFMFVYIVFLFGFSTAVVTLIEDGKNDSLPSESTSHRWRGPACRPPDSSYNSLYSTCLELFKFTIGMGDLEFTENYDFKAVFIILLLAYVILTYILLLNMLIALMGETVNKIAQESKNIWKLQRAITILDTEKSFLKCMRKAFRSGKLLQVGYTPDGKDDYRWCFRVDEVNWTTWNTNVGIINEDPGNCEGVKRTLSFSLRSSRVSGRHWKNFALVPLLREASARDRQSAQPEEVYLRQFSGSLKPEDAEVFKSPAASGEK
Kind of data set: Selectivity patch clamp, TRPV1 channel. The settings on record: fold selective for TRPV3 over TRPV1; tested up to 30 μM, IC50 estimated. In kind it is cell-based.
From the text: as §1

Data set [3] deals with T3, rat TRPV6 (rTRPV6) (Rattus norvegicus, UniProt Q9R186).
T3 construct: expressed in transfected cells
T3 sequence (Q9R186 1-767): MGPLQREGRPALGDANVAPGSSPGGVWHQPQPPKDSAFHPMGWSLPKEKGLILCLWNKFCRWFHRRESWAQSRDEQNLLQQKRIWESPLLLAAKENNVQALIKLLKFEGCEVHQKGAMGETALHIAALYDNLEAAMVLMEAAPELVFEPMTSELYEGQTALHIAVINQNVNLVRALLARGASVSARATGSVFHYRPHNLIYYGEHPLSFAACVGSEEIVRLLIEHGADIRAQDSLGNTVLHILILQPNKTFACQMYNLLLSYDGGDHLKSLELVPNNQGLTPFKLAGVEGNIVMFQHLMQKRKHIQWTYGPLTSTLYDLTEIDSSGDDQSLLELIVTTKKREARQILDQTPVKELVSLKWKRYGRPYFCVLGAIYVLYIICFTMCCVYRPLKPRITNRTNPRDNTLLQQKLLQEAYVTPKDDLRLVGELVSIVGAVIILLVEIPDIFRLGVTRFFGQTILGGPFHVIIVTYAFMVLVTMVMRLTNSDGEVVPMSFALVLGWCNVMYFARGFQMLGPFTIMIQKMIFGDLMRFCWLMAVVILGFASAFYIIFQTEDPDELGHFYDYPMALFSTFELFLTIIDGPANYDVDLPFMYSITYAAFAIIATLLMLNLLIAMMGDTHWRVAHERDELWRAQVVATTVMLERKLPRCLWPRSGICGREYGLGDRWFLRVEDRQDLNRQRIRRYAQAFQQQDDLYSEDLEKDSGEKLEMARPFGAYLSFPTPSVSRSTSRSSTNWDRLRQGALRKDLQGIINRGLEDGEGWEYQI
Kind of data set: Selectivity patch clamp, TRPV6 channel. Format: cell-based. The settings on record: fold selective for TRPV3 over TRPV6; tested up to 30 μM, IC50 estimated.
From the text: as §1

Data set [4] concerns rats, CFA injected hindpaw. The experiment in a line: Complete Freund's Adjuvant (CFA) model of inflammatory pain, latency to withdrawal. In kind it is in vivo, rat. The following applies: for Effect relative to diclofenac / TRPV1 inhibitor: highest dose tested, 200 mg/kg; for Thermal hyperalgesia (latency to withdrawal): intraperitoneal, tested 45 minutes later. Here is the method: As outlined above, the Complete Freund's Adjuvant (CFA) model is a model of inflammatory pain. As such, it may be used to evaluate effectiveness in relieving pain caused by inflammation, for example, pain due to arthritis and other inflammatory conditions. FIG. 9 provides a schematic representation of the protocol used to evaluate a TRPV3 inhibitor in the CFA model.
Naive rats were pretested for sensitivity to a heat stimulus in the Hargreaves apparatus. The next day, 100 μL of complete Freund's adjuvant (CFA) was injected into the plantar surface of the right hindpaw. Two days later, in the morning, the rats were again pretested. In the afternoon, rats were injected with either vehicle control (methylcellulose or PEG-400) or with drug (TRPV3 inhibitor 64, TRPV3 inhibitor 15, TRPV1 inhibitor A-425619, or the non-steroidal anti-inflammatory diclofenac). Drugs or vehicle were injected intraperitoneally, and 45 minutes later rats were tested for hyperalgesia by applying the heat source to the CFA injected and uninjected hindpaw and measuring latency to withdrawal.

A short description of data set [5]: Plasma levels by HPLC/MS/MS after administration. The following applies: rat. In kind it is in vivo. As to the method:
The plasma levels of TRPV3 inhibitor 15 were determined via HPLC/MS/MS following administration to male Sprague-Dawley rats. Rats were administered a single intravenous bolus dose of 1.2 mg/kg, an intraperitoneal dose of a suspension of 30 or 60 mg/kg, an oral dose of a solution of 8.6 mg/kg, or an oral dose of a suspension of 6.9 mg/kg.
For intravenous administration, TRPV3 inhibitor 15 solutions were formulated in Solutol at a target concentration of 0.25 mg/mL. The solution was administered as a rapid bolus (approximately 2-3 seconds) via the tail vein of conscious rats or via jugular vein catheter in anesthetized rats. The solution was administered at a dose volume of 4 mL/kg.
For intraperitoneal administration, TRPV3 inhibitor 15 was formulated as a uniform suspension in CMC (carboxymethylcellulose) at a target concentration of 5 mg/mL. The suspension was administered at a dose volume of 10 mL/kg.
For oral administration, TRPV3 inhibitor 15 was formulated as either a uniform suspension in CMC or as a solution in Solutol. The target concentration was 1 mg/mL. Oral administration was by gavage at a dose volume of 10 mL/kg to conscious, fasted, male Sprague-Dawley rats.

Data set [6] has as its system Male Holtzman rats, thermal injury. Kind of data set: Thermal injury model, thermal escape latency (Hargreaves). In kind it is in vivo, rat. As to the method:
The thermal injury model was used to evaluate the effectiveness of an exemplary TRPV3 inhibitor in the treatment of nociceptive pain. FIG. 1 provides a schematic representation of the protocol used to evaluate a TRPV3 inhibitor in the thermal injury model.
Briefly, the following protocol was followed. Male Holtzman rats (approximately 300 grams) were tested on thermal escape using a Hargreaves type apparatus. Under light anesthesia, a thermal injury (52° C. for 45 seconds) was applied to one heel. The animals were tested for thermal escape latency of the injured and uninjured paw before and at 30, 60, 80 and 120 minutes after injury. Drug (a TRPV3 inhibitor or morphine) or vehicle (0.5% methylcellulose) was administered after the baseline measurement and approximately 15-20 minutes prior to the thermal injury. In addition to the escape latency measurement, behavioral observations were made throughout the experiment.

In data set [7] the test system is Male Holtzmann rats, intraplantar formalin. The experiment in a line: Formalin model following intrathecal delivery. In kind it is in vivo, rat. The following applies: 10 mg/kg intrathecally. The text has this:
As outlined above, the formalin model involves injection of a formalin solution intradermally or intraperitoneally. Injection of formalin solution invokes a biphasic response, and thus provides a model for both nociceptive and inflammatory pain. The formalin model was used to evaluate the effectiveness of an exemplary TRPV3 inhibitor in the treatment of pain following intrathecal (IT) delivery. Efficacy following intrathecal delivery provides evidence that the compound can act centrally.
Briefly, the following protocol was followed. Male Holtzmann rats received intraplantar injections of 50 μL of 2% formalin. Paw flinching was detected by an automated sensor detecting movement of a small metal band placed on the injected hind paw. Drug or vehicle was administered intrathecally approximately 15 minutes prior to the injection of formalin. The animal's response to injection of the irritant was measured by counting flinches per minutes during the Early Phase and during the Late Phase.
Flinches per minute, a measure of the pain and discomfort experienced by the animal, was measured following formalin injection in animals receiving either 10 mg/kg TRPV3 inhibitor (Compound 64) or a vehicle control (0.5% DCC). The TRPV3 inhibitor was formulated in 20% DMSO/20% cremaphore/10% cyclodextrin (DCC) and administered intrathecally. […]

For data set [8], the system named is Male Holtzman rats, substance-P induced thermal hyperalgesia. Kind of data set: Intrathecal substance-P induced thermal hyperalgesia. In kind it is in vivo, rat. The following applies: 200 mg/kg IP, 30 minutes prior to substance-P; p<0.05 between groups. Here is the method:
The efficacy of a TRPV3 antagonist in diminishing hyperalgesia was assessed in a model of intrathecal administered substance-P induced thermal hyperalgesia. Male Holtzman rats were used in this study and thermal escape was measured using a Hargreaves apparatus. Thermal escape was measured pre-treatment (baseline), and at intervals following intrathecal administration of substance-P (tested at 15, 30, 45, and 60 minutes post substance-P administration). Control animals were administered vehicle intraperitoneally after baseline assessment and 30 minutes prior to substance P administration. Experimental animals receiving a TRPV3 inhibitor (compound 64) were administered compound intraperitoneally after baseline assessment and 30 minutes prior to substance P administration.
Substance-P induced rats were surgically prepared with a lumbar intrathecal catheter using clean surgical technique while under inhalation anesthesia (isoflurane). The catheter was externalized at the back of the head to minimize handling of the animal during drug delivery. […]
Briefly, baseline mean paw latencies were determined prior to substance-P administration. […] After injection of substance P intrathecally via the previously placed catheter (counted as time=0), measurements of escape latency were taken at 15, 30, 45, and 60 minutes post-substance-P administration. […]

In data set [9] the test system is Male Holtzman rats, thermal injury. The settings on record: Table B comparators; based on our data as well as data available in the literature; cited from earlier work.
The test system of data set [10] is rats, CFA injected hindpaw. The settings on record: Table B comparators; based on our data as well as data available in the literature; cited from earlier work.
The target in data set [11] is T3, rat TRPV6 (rTRPV6). The settings on record: (Clapham et al.); cited from earlier work.
In data set [12] the target is human ERG (hERG) (Homo sapiens, UniProt Q12809). The experiment in a line: Selectivity patch clamp, hERG channel. The following applies: fold selective for TRPV3 over hERG; tested up to 30 μM, IC50 estimated.
Sequence of human ERG (hERG) (Q12809 whole entry): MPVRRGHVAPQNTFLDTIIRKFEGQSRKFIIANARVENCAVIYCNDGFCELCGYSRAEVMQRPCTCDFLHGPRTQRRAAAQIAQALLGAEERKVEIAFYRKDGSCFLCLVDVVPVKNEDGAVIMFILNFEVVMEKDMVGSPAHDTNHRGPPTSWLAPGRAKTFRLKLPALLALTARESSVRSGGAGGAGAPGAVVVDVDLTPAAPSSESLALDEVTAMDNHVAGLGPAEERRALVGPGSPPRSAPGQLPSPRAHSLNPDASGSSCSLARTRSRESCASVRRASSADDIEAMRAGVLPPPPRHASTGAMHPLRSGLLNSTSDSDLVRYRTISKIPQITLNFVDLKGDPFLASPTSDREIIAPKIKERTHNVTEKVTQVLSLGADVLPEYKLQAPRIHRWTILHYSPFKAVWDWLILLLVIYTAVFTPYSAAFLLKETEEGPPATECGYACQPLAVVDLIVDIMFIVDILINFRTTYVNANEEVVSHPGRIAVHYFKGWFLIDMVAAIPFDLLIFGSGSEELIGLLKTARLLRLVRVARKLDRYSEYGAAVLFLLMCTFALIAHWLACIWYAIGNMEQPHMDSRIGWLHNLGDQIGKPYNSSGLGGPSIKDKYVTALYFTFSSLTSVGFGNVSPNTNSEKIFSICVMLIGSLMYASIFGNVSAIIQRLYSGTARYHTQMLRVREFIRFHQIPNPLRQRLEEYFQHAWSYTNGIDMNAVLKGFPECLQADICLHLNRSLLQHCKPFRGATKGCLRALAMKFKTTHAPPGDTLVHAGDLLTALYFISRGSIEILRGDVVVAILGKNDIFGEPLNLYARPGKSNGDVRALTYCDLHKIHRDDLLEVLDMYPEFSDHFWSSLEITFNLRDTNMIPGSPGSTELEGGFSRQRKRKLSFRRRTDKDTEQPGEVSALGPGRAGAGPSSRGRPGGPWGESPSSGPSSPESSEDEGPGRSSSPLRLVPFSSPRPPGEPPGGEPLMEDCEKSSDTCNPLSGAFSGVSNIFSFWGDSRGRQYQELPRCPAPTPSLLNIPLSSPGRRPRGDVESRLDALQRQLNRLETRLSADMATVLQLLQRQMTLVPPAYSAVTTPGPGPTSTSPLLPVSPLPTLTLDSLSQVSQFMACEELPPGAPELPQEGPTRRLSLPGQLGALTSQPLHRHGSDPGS
Procedure: Compounds of interest were tested against these channels at concentrations up to 30 μM, and the resulting data were used to estimate IC50. Data is presented as fold selective.

T1 sequence (Q99250 whole entry): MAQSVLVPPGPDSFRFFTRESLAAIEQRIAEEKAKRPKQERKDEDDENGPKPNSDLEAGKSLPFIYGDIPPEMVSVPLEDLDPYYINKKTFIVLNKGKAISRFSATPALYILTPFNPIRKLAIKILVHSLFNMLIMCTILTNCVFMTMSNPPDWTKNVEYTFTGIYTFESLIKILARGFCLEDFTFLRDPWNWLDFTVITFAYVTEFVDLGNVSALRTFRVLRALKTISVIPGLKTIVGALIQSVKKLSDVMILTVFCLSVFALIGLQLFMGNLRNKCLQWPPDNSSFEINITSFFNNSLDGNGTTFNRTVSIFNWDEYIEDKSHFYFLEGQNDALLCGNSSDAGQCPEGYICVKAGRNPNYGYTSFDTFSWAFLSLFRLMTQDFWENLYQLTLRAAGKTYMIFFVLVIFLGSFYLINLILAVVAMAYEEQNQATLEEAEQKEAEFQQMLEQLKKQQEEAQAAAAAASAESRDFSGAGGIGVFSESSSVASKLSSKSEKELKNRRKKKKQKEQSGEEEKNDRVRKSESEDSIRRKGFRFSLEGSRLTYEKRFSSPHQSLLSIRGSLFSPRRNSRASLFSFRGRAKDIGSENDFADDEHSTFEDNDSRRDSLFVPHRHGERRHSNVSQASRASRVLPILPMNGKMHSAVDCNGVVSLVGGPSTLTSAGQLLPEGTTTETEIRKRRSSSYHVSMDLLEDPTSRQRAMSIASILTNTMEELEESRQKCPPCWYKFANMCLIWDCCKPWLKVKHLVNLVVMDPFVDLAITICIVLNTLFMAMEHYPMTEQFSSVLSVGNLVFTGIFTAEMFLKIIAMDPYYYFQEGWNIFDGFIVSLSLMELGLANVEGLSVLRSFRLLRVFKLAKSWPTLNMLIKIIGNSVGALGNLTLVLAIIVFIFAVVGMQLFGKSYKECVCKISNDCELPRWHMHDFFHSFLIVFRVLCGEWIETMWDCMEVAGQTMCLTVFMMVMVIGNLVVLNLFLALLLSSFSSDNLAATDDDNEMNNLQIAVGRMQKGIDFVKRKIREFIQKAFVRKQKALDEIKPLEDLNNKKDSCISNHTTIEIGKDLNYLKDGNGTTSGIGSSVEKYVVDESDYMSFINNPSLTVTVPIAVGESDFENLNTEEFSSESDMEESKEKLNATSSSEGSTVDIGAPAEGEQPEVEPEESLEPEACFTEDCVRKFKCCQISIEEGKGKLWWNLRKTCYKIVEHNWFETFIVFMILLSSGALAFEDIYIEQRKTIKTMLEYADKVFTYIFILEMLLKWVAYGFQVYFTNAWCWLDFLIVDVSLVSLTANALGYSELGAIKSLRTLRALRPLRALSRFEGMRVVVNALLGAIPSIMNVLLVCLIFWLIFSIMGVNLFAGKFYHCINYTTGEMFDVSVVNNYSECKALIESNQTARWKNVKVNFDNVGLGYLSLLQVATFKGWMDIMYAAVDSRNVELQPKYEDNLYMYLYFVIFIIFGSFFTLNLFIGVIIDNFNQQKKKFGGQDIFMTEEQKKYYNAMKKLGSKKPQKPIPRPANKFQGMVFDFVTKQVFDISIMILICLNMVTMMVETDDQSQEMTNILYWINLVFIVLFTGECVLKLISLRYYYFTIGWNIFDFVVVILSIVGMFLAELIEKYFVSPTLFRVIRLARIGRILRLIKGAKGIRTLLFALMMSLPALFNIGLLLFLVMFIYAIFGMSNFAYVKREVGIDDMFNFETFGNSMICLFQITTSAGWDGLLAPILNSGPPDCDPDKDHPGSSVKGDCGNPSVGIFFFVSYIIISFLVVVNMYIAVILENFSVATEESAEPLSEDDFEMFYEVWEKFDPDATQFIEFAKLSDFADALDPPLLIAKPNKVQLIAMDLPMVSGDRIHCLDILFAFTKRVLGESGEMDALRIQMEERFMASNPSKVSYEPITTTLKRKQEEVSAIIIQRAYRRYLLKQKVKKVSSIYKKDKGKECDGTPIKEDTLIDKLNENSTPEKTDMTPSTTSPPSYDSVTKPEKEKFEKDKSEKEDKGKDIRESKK

Broadly, the bioavailability is dose-corrected exposure relative to a reference, in per cent. Usually half-life stands for the time needed for the level to fall by half in the phase considered. What is called clearance is a measure of how efficiently the substance is removed, as volume per time. On to `Cc1cccc2c1N(C(=O)CSc1nc3cc(Cl)ccc3s1)CCC2` [Compound 15, 2-(5-Chlorobenzothiazol-2-ylsulfanyl)-1-(8-methyl-3,4-dihydro-2H-quinolin-1-yl)-ethanone], for which, in data set [1], the “TRPV3:NaV1.2 fold selectivity” value is over 1000 fold. The “TRPV3:TRPV1 fold selectivity” value in data set [2] is over 1000 fold. Moreover, in [3], the “TRPV3:TRPV6 fold selectivity” value is over 1000 fold. For the same compound, in data set [4], the “Effect relative to diclofenac / TRPV1 inhibitor” value is “more potent than the effects of the non-steroidal anti-inflammatory” and the “Thermal hyperalgesia (latency to withdrawal)” value is “reduced thermal hyperalgesia”. In addition, the bioavailability in [5] (male, Sprague-Dawley, fasted rats, oral, solution or suspension, read-out: Estimated bioavailability) was about 5%. In data set [5] (male Sprague-Dawley rats, read-out: Estimated half-life (converted)), the half-life is 1.6 h. The clearance in [5] (male Sprague-Dawley rats, read-out: Estimated plasma clearance) is 41 mL/min/kg. Also, the Vd in data set [5] (male Sprague-Dawley rats, read-out: Estimated volume of distribution) is 5.51 L/kg.

Take `Cc1cccc2c1N(C(=O)CSc1nc3ccccc3s1)CCC2` [Compound 46, 2-(Benzothiazol-2-ylsulfanyl)-1-(8-methyl-3,4-dihydro-2H-quinolin-1-yl)-ethanone]: the “TRPV3:TRPV1 fold selectivity” value in data set [2] is over 200 fold.

As to `O=C(CSc1nc2ccccc2s1)N1CCCc2ccccc21` [Compound 64, 2-(Benzo[d]thiazol-2-ylthio)-1-(3,4-dihydroquinolin-1(2H)-yl)ethanone], in data set [1], the “TRPV3:NaV1.2 fold selectivity” value is recorded as over 40 fold. Further, the “TRPV3:TRPV1 fold selectivity” value in data set [2] is on record as over 40 fold. In data set [3], the “TRPV3:TRPV6 fold selectivity” value is on record as over 40 fold. Also, the “Escape latency in the injured paw” value in [6] (200 mg/kg) is recorded as “comparable to that observed prior to injury”. For the same compound, in data set [6] (even at the highest concentrations administered (FIG. 3)), the “Escape latency in the uninjured paw” value is “no effect on the uninjured paw”. Also, the “Escape latency in the injured paw” value in data set [6] (increasing concentrations of inhibitor vs methylcellulose control (FIG. 2)) is reported as “significantly diminished pain”. In [4], the “Effect relative to diclofenac / TRPV1 inhibitor” value is reported as “more potent than the effects of either the non-steroidal anti-inflammatory or the TRPV1 inhibitor” and the “Thermal hyperalgesia (latency to withdrawal)” value is “reduced thermal hyperalgesia”. The “Pain sensitivity of inflamed paw” value in data set [4] (individual rats, FIG. 11) was “returns pain sensitivity to baseline levels”. The Flinches per minute result in data set [7] (about 15 minutes prior to formalin, vs vehicle) is recorded as “substantially reduced the flinches per minute”. In addition, in data set [7] (Late Phase), the “Flinches per minute, Late Phase” value is recorded as “statistically significant reduction”. Moreover, the “Thermal hyperalgesia (mean paw latency)” value in data set [8] is “reversed the hyperalgesia”.

`NCC1(CC(=O)O)CCCCC1` [Gabapentin]: in data set [9], the Acute thermal injury result is reported as “Effective”. Also, the “CFA Model” value in data set [10] was “Ineffective”.

For the compound `N.N.N.N.N.N.N.N.N.N.N.N.N.N.[Cl-].[Cl-].[Cl-].[Cl-].[Cl-].[Cl-].[O-2].[O-2].[Ru+3].[Ru+3].[Ru+4]` [Ruthenium Red], in data set [2], the “TRPV3:TRPV1 fold selectivity” value is 3 fold selective. Further, in [11], the “TRPV3:TRPV6 fold selectivity” value is listed as 10 fold. Besides, the “TRPV3:hERG fold selectivity” value in [12] is listed as over 40 fold.
